Measured values from patent US20230172958A1, “USE OF COMPOUNDS FOR TREATING VIRAL INFECTIONS” (priority 2020, published 2023).

Legend:
Type in all cases: cell-based
[1] = system: V-ATPase; assay: V-ATPase ELISA (Human V-Type Proton ATPase ELISA kit) on treated MDAMB231 cells; conditions: 100 nM (0.1 μM)/10,000 cells, 48 hours
Protocol: An ELISA test was performed using Human V-Type Proton ATPase ELISA kit (My BioSource Catlog no: MBS911862) to determine the V-ATPase inhibitory effect of the compounds of the present invention.
Procedure: 1.0 million cells of MDAMB231 (cell line rich in V-ATPase) were plated on 60 mm plates for 24 hours at 37° C. and 5% CO2. The cells were treated with the test compounds (Formula A to U) at a concentration of 100 nM (0.1 μM)/10,000 cells and incubated for 48 hours. After incubation the supernatant was discarded, the cells were washed with D.P.B.S. (Dulbecco's phosphate-buffered saline), scraped and stored at −80° C. for 48 hours. The cells were thawed, vortexed, homogenized for 7 minutes, followed by centrifugation for 3 minutes at 3000 R.P.M. The supernatant was taken for V-ATPase Assay.
Standards and samples were pipetted into the wells. Antibody specific for V-ATPase was pre-coated onto a microplate. Any V-ATPase present in the standard /sample would get bound by the immobilized antibody. After the incubation period any unbound substances were removed by washing and a biotin-conjugated antibody specific for V-ATPase was added to the wells and plates were re-incubated at 37° C. and 5% CO2. After washing, avidin conjugated Horseradish Peroxidase (HRP) was added to the wells. Following a wash to remove any unbound avidin-enzyme reagent, a substrate solution was added to the wells and colour developed was in proportion to the amount of V-ATPase bound in the initial step. The colour development was stopped, and the optical density was measured at 450 nm spectrophotometrically. The concentration of V-ATPase was then calculated by substituting the optical density in the regression equation obtained from the standards. Percent (%) reduction in V-ATPase was calculated by subtracting the amount of V-ATPase obtained from the untreated/conc. of V-ATPase in untreated X100.

[2] = Neutral Red toxicity assay, uninfected cultures; conditions: African green monkey, Vero 76 cells (uninfected monolayers), cell-inhibitory
Protocol: Confluent or near-confluent cell culture monolayers of Vero 76 cells were prepared in 96-well disposable microplates the day before testing. Cells were maintained in MEM (Minimum Essential Medium Eagle) supplemented with 5% FBS (Fetal Bovine Serum). For antiviral assays the same medium was used but with FBS reduced to 2% and supplemented with 50-μg/ml gentamicin.
Compounds were dissolved in DMSO, saline or the diluent. […] The test compound was prepared at four serial log10 concentrations, usually 0.1, 1.0, 10, and 100 μg/ml or μM. Lower concentrations were used when insufficient compound was supplied. Five microwells were used per dilution: three for infected cultures and two for uninfected toxicity cultures. Controls for the experiment consisted of six microwells that were infected and not treated (virus controls) and six that were untreated and uninfected (cell controls) on every plate. A known active drug was tested in parallel as a positive control drug using the same method as was applied for test compounds. The positive control was tested with every test run.
Growth media was removed from the cells and the test compound was applied in 0.1 ml volume to wells at 2× concentration. Virus, normally at ˜60 CCID50 (50% cell culture infectious dose) in 0.1 ml volume is added to the wells designated for virus infection. Medium devoid of virus was placed in toxicity control wells and cell control wells. […] The plates were then stained with 0.011% neutral red for approximately two hours at 37° C. in a 5% CO2 incubator. The neutral red medium was removed by complete aspiration, and the cells may be rinsed 1× with phosphate buffered solution (PBS) to remove residual dye. The PBS was completely removed, and the incorporated neutral red was eluted with 50% Sorensen's citrate buffer/50% ethanol for at least 30 minutes. Neutral red dye penetrates into living cells, thus, the more intense the red color, the larger the number of viable cells present in the wells. The dye content in each well was quantified using a spectrophotometer at 540 nm wavelength. The dye content in each set of wells was converted to a percentage of dye present in untreated control wells using a Microsoft Excel computer-based spreadsheet and normalized based on the virus control. The 50% effective (EC50, virus-inhibitory) concentrations and 50% cytotoxic (CC50, cell-inhibitory) concentrations are then calculated by regression analysis. The quotient of CC50 divided by EC50 gives the selectivity index (SI) value.

[3] = system: SARS-CoV-2; assay: Neutral Red reduction of virus-induced cytopathic effect (primary CPE assay) in Vero 76 cells; conditions: Severe acute respiratory syndrome coronavirus 2, virus-inhibitory
[4] = system: Human Peripheral Blood Lymphocytes; assay: MTT toxicity assay on normal cells; conditions: 48 hours
Protocol: Toxicity studies of compounds of the present invention on normal cells The toxicity study was performed on Human Peripheral Blood Lymphocytes obtained differential centrifugation of defibrinated blood. MTT assay for compound of the present invention was performed to determine its toxicity. MTT assay is a simple and sensitive assay where, metabolic reducing activity of the cells is measured. It was carried out in the following manner.
A required volume of cell suspension was prepared as per the cell plating efficiency. 200 μl of prepared cell suspension was added in labelled 96 well plates and the plates were placed in an incubator for 18-24 hours at 37° C. and 5% CO2. Then, 2 μl of respective compound dilution was added and the plates were placed in the incubator for 48 hours at 37° C. and 5% CO2. The suspension was aspirated from the plates and 100 μl of working MTT solution (0.5 mg/ml MTT prepared from 5 mg/ml MTT stock in 1× complete media) was added. The plates were incubated in the incubator for 4 hours at 37° C. and 5% CO2. The plates were spinned down, supernatant removed, 200 μl DMSO was added, mixed gently and placed in the incubator for 10 minutes at 37° C. and 5% CO2. The absorbance at 570 nm was read and percentage viability and IC50 value of the compounds was calculated using regression analysis.

Row | SMILES | reduction of V-ATPase (%) [1] | CC50 [2] | EC50 [3] | IC50 (μM) [4]
1 | COc1cc2c(OC3OCC(OC)C(OC)C3O)c3c(c(-c4ccc5c(c4)OCO5)c2cc1OC)C(=O)OC3 (stereo not drawn) [Compound of Formula A, 9-(benzo[d][1,3]dioxol-5-yl)-6,7-dimethoxy-4-(tetrahydro-3-hydroxy-4,5-dimethoxy-2H-pyran-2-yloxy)naphtho[2,3-c]furan-1(3H)-one] | 13.31% | < 0.1 mg/L | > 0.1 mg/L | –
2 | COc1cc2c(OC(=O)c3cccn3C)c3c(c(-c4ccc5c(c4)OCO5)c2cc1OC)C(=O)OC3 [Compound of Formula B, 9-(benzo[d][1,3]dioxol-5-yl)-1,3-dihydro-6,7-dimethoxy-1-oxonaphtho[2,3-c]furan-4-yl 1-methyl-1H-pyrrole-2-carboxylate] | 15.33% | – | – | No activity (Nontoxic)
3 | COc1cc2c(OC(=O)C(c3ccccc3)C3CCCC3)c3c(c(-c4ccc5c(c4)OCO5)c2cc1OC)C(=O)OC3 (stereo not drawn) [Compound of Formula C, 9-(benzo[d][1,3]dioxol-5-yl)-1,3-dihydro-6,7-dimethoxy-1-oxonaphtho[2,3-c]furan-4-yl 2-cyclopentyl-2-phenylacetate] | 14.69% | – | – | No activity (Nontoxic)
4 | CCOC(=O)c1c(C(=O)OCC)c(-c2ccc3c(c2)OCO3)c2cc(OC)c(OC)cc2c1OC1OCC(OC)C(OC)C1O (stereo not drawn) [Compound of Formula D, diethyl 1-(benzo[d][1,3]dioxol-5-yl)-6,7-dimethoxy-4-(tetrahydro-3-hydroxy-4,5-dimethoxy-2H-pyran-2-yloxy)naphthalene-2,3-dicarboxylate] | 18.2% | 40 mg/L | 32 mg/L | No activity (Nontoxic)
5 | O[C@H]1[C@H](O)COC(Oc2ccc(-c3ccc4c(c3)OCO4)c3ccccc23)[C@@H]1O (stereo partly drawn) [Compound of Formula F, (3R,4S,5R)-2-(1-(benzo[d][1,3]dioxol-5-yl)naphthalen-4-yloxy)-tetrahydro-2H-pyran-3,4,5-triol] | 61.0% | 32 mg/L | 2.9 mg/L | –
6 | O=C(Nc1ccc(-c2ccc3c(c2)OCO3)c2ccccc12)c1ccco1 [Compound of Formula G, N-(1-(benzo[d][1,3]dioxol-5-yl)naphthalen-4-yl)furan-2-carboxamide] | 62.37% | – | – | –
7 | c1ccc(COc2ccc(-c3ccc4c(c3)OCO4)c3cccnc23)cc1 [Compound of Formula H, 5-(benzo[d][1,3]dioxol-5-yl)-8-(benzyloxy)quinoline] | 61.34% | – | – | –
8 | O=S(=O)(Nc1ccc(-c2ccc3c(c2)OCO3)c2ccccc12)c1ccccc1 [Compound of Formula I, N-(1-(benzo[d][1,3]dioxol-5-yl)naphthalen-4-yl)benzenesulphonamide] | 20.56% | – | – | No activity (Nontoxic)
9 | O=S(=O)(Nc1ccc(-c2ccc3c(c2)OCO3)c2ccccc12)c1ccc(F)cc1 [Compound of Formula J, N-(1-(benzo[d][1,3]dioxol-5-yl)naphthalen-4-yl)-4-fluorobenzenesulphonamide] | 60.96% | – | – | –
10 | O=C(CN1CCNCC1)Nc1ccc(-c2ccc3c(c2)OCO3)c2ccccc12 [Compound of Formula K, N-(1-(benzo[d][1,3]dioxol-5-yl)naphthalen-4-yl)-2-(piperazin-1-yl)acetamide] | 28.05% | – | – | –
11 | COc1cc2c(OCCCCN3CCOCC3)c3c(c(-c4ccc5c(c4)OCO5)c2cc1OC)C(=O)OC3 [Compound of Formula L, 4-(4-morpholinobutoxy)-9-(benzo[d][1,3]dioxol-5-yl)-6,7-dimethoxynaphtho[2,3-c]furan-1(3H)-one] | 21.0% | 0.34 mg/L | > 0.34 mg/L | No activity (Nontoxic)
12 | c1ccc2c(-c3ccc4c(c3)OCO4)ccc(OCCCCN3CCOCC3)c2c1 [Compound of Formula M, 4-(4-(1-(benzo[d][1,3]dioxol-5-yl)naphthalen-4-yloxy)butyl)morpholine] | 76.16% | – | – | –
13 | c1ccc2c(-c3ccc4c(c3)OCO4)ccc(OCCCCNC3CCCCC3)c2c1 [Compound of Formula N, N-(4-(1-(benzo[d][1,3]dioxol-5-yl)naphthalen-4-yloxy)butyl)cyclohexanamine] | 6.3% | – | – | –
14 | c1ccc2c(-c3ccc4c(c3)OCO4)ccc(OCCN3CCOCC3)c2c1 [Compound of Formula O, 4-(2-(1-(benzo[d][1,3]dioxol-5-yl)naphthalen-4-yloxy)ethyl)morpholine] | 20.26% | – | – | No activity (Nontoxic)
15 | COc1cccc(-c2ccc(OCCN3CCOCC3)c3ccccc23)c1 [Compound of Formula P, 4-(2-(1-(3-methoxyphenyl)naphthalen-4-yloxy)ethyl)morpholine] | 18.27% | – | – | No activity (Nontoxic)
16 | c1cc2c(cc1-c1ccc(OCCCCCCNC3CCCCC3)c3c1CCCC3)OCO2 [Compound of Formula Q, N-(6-(5-(benzo[d][1,3]dioxol-5-yl)-1,2,3,4-tetrahydronaphthalen-8-yloxy)hexyl)cyclohexanamine] | 77.42% | – | – | –
17 | C=CCNCCCCCCOc1ccc(-c2ccc3c(c2)OCO3)c2c1CCCC2 [Compound of Formula R, 6-(5-(benzo[d][1,3]dioxol-5-yl)-1,2,3,4-tetrahydronaphthalen-8-yloxy)-N-allylhexan-1-amine] | 16.2% | – | – | –
18 | c1cnc2c(OCCN3CCOCC3)ccc(-c3ccc4c(c3)OCO4)c2c1 [Compound of Formula S, 8-(2-morpholinoethoxy)-5-(benzo[d][1,3]dioxol-5-yl)quinoline] | 75.5% | – | – | –
19 | O=C(CN1CCNCC1)NCCOc1ccc(-c2ccc3c(c2)OCO3)c2ccccc12 [Compound of Formula T, N-(2-(1-(benzo[d][1,3]dioxol-5-yl)naphthalen-4-yloxy)ethyl)-2-(piperazin-1-yl)acetamide] | 81.9% | – | – | –
20 | COc1ccc(-c2ccc(OCCN3CCOCC3)c3ccccc23)cc1OC [Compound of Formula U, 4-(2-(1-(3,4-dimethoxyphenyl)naphthalen-4-yloxy)ethyl)morpholine] | 16.57% | – | – | No activity (Nontoxic)
